Measured values taken from patent US11208387B2, “Macrocyclic broad spectrum antibiotics” (Genentech, Inc., priority 2019, dated 2021).
pIC50: −log10 of the molar value. In brackets after ≈: the same amount, converted by molar mass. Like-named read-outs stand apart in the source and are kept apart here.

Columns and labels:
[1] = test system: isolated liver mitochondria; assay: Mitochondrial oxygen consumption rate (OCR) assay; assay type: biochemical, Sprague-Dawley rats; conditions: isolated rat liver mitochondria, state 3 (S3) respiration, glutamate/malate; Table 3
Source text: Male Sprague-Dawley rats (8-10 weeks of age) were euthanized with an overdose of carbon dioxide. The liver was rapidly excised and placed in ice-cold phosphate-buffered saline (PBS) before isolation process. Mitochondria were isolated using the MitoCheck® Mitochondrial Isolation Kit (Cayman Chemical #701010, Ann Arbor, Mich.) according to manufacturer's instructions. In brief, approximately 10-14 grams of liver tissues were finely minced using a pair of scissors, and washed repeatedly with ice-cold PBS, followed by Mito Isolation Buffer. The minced tissues were homogenized with 30 ml Mito Homogenization Buffer in 40 ml dounce homogenizer and a smooth glass grinder. The homogenate was split into two clean 30 ml polycarbonate tubes and centrifuged at 1,000×g, 4° C., for 3 minutes. The supernatant was subjected to further centrifugation at 10,000×g, 4° C., for 10 minutes. The supernatant was discarded and mitochondrial pellet was suspended in Mito Isolation Buffer using a glass stirring rod and stored on ice until use. Protein concentration of mitochondria was determined using a bicinchoninic acid protein assay kit (Thermo Scientific, Waltham, Mass.).
Oxygen consumption was monitored as essentially described by Will et al., “Analysis of mitochondrial function using phosphorescent oxygen-sensitive probes,” Nature Protocols Vol. 1(6) (2006) 2563. Briefly, isolated mitochondria (50 μg mitochondrial proteins/state 3 (S3) of mitochondrial respiration for inhibitor identification, 100 μg/S2 for uncoupler identification) were incubated with compounds in 25 μl of Measurement Buffer (MB: 250 mM sucrose, 15 mM KCl, 1 mM EGTA, 5 mM MgCl2, 30 mM K2HPO4, pH 7.4) including 1% DMSO on ice for 1 hour, then mixed with 25 μl of substrate mixture including an oxygen-sensitive phosphorescent dye (MitoXpress Xtra, Agilent, Santa Clara, Calif.), glutamate (25 mM, G1626, Sigma, St. Louis, Mo.), malate (25 mM, M6413, Sigma), ADP (3.3 mM, A2754, Sigma, only for S3 of mitochondrial respiration), Fatty acid free BSA (0.1%, A0281, Sigma), and a complex II-specific inhibitor TTFA (2 μM, T27006, Sigma for the assessment of complex I-mitochondrial respiration with glutamate/malate) in a black wall/clear bottom 384-well plate. The mixtures were covered with HS mineral oil (Agilent) using the Viaflo 384-channel pipette (Integra, Hudson, N.H.). Oxygen consumption was measured for 30 min at 30° C. using a spectrofluorimeter (FLUOstar Omega, BMG Labtech, Cary, N.C.). In S3, DMSO vehicle control and antimycin A (10 μM) were used to define 0% and 100% inhibition. In S2, DMSO vehicle and FCCP (0.5-1 μM) was used to define 0% and 100% uncoupling, respectively. Area under curve typically in a range of 0-12 min (S3) or 0-24 min (S2) was used for calculations. IC50 or UC50 (uncoupling concentration), a concentration that causes 50% of inhibition or maximal (uncoupling) activation of oxygen consumption, was used to evaluate experimental quality. Data were presented as μM (per 50 μg (S3) or 100 μg (S2) mitochondrial proteins). Compounds with IC50: <100 μM (S3) and/or UC50: <200 μM (S2) were considered as high-risk on mitochondrial toxicity. Compounds with 25-50% changes in inhibition and/or uncoupling were categorized as medium-risk, since compounds with >25% changes are considered as responders.
Toxicity associated with mitochondrial dysfunction has presented a problem for promising potential antibiotics as we as other types of therapeutics. The mitochondrial oxygen consumption rate (OCR) assay is considered a reliable indicator of potential internal organ toxicity issues that may occur with powerful antibiotics. The carboxylate compounds of the invention show unexpected lower toxicity than prior art “glycine nitrile” arylomycin analogs (see, e.g., WO 2018/149419) in the mitochondrial oxygen consumption rate (OCR) assay.

[2] = test system: Acinetobacter baumannii ATCC 17978; assay: Serum MIC, broth micro-dilution; assay type: cell-based; conditions: Acinetobacter baumannii
In short: (§1)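 Plates held at 35 °C for 22 h after adding bacteria to a final OD600 of 0.0005. Medium was a 1:1 mix of mouse serum and cation-adjusted Mueller Hinton II broth. Ten two-fold compound dilutions began at 64, 4, 0.5 or 0.13 μg/mL, per CLSI microdilution.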

[3] = test system: Klebsiella pneumoniae ATCC 700603; assay: Serum MIC, broth micro-dilution; assay type: cell-based; conditions: Klebsiella pneumoniae, read-out: K pneumoniae 700603 Serum MIC
In short: as §1

[4] = test system: Pseudomonas aeruginosa PA01; assay: Serum MIC, broth micro-dilution; assay type: cell-based; conditions: Pseudomonas aeruginosa, read-out: P. aeruginosa 01 Serum MIC
In short: as §1

[5] = test system: Escherichia coli strain ATCC 25922; assay: Serum MIC, broth micro-dilution; assay type: cell-based; conditions: Escherichia coli, read-out: E. coli 25922 Serum MIC
In short: as §1

[6] = ATCC17978, 50% v/v mouse serum in Mueller Hinton II cation adjusted Broth, 35° C., 22 hours, Table 4, read-out: A. baumanii 17978 Serum MIC
[7] = ATCC17978, 50% v/v mouse serum in Mueller Hinton II cation adjusted Broth, 35° C., 22 hours, Table 5, read-out: Acinetobacter baumanii 17978 Serum MIC
[8] = ATCC700603, 50% v/v mouse serum in Mueller Hinton II cation adjusted Broth, 35° C., 22 hours, Table 4
[9] = PA01, 50% v/v mouse serum in Mueller Hinton II cation adjusted Broth, 35° C., 22 hours, Table 4
[10] = ATCC25922, 50% v/v mouse serum in Mueller Hinton II cation adjusted Broth, 35° C., 22 hours, Table 4
[11] = ATCC17978, 22 h, read-out: A. baumanii 17978 Serum MIC
[12] = ATCC17978, 22 h, read-out: Acinetobacter baumanii 17978 Serum MIC

Structure (SMILES) | pIC50 [1] | MIC [2, 6] [µM] | MIC [2, 7] [µM] | MIC [3, 8] [µM] | MIC [4, 9] [µM] | MIC [5, 10] [µM] | MIC [2, 11] [µM] | MIC [2, 12] [µM] | MIC ([3]; ATCC700603, 22 h) [µM] | MIC ([4]; PA01, 22 h) [µM] | MIC ([5]; ATCC25922, 22 h) [µM]
Cc1nc(-c2ccc(C(C)(C)C)cc2)nc(C)c1C(=O)N[C@@H](CNS(N)(=O)=O)C(=O)N(C)[C@@H]1C(=O)N[C@@H](C)C(=O)N[C@H](C(=O)O)Cc2ccc(OC[C@H](O)CN)c(c2)-c2cc1cc(OC[C@H](O)CN)c2O [Example 7, (8S,11S,14S)-18-hydroxy-11-methyl-14-[methyl-[(2S)-2-[[2-(4-tert-butyl-phenyl)-4,6-dimethyl-pyrimidine-5-carbonyl]amino]-3-(sulfamoylamino)-propanoyl]amino]-10,13-dioxo-3,17-bis[(2R)-3-amino-2-hydroxy-propoxy]-9,12-diazatricyclo-[13.3.1.12,6]icosa-1(18),2(20),3,5,15(19), 16-hexaene-8-carboxylic acid] | < 3.60 | 9.3 (≈ 9.37 µg/mL) | 9.3 (≈ 9.37 µg/mL) | 0.46 (≈ 0.463 µg/mL) | 4.3 (≈ 4.33 µg/mL) | 0.42 (≈ 0.423 µg/mL) |  |  |  |  | 
Cc1nc(-c2ccc(C(C)(C)C)cc2)ncc1C(=O)N[C@@H](CNS(N)(=O)=O)C(=O)N(C)[C@@H]1C(=O)N[C@@H](C)C(=O)N[C@H](C(=O)O)Cc2ccc(OC[C@H](O)CN)c(c2)-c2cc1cc(OC[C@H](O)CN)c2O [Example 8, (8S,11S,14S)-18-hydroxy-11-methyl-14-[methyl-[(2S)-2-[[2-(4-tert-butyl-phenyl)-4-methyl-pyrimidine-5-carbonyl]amino]-3-(sulfamoylamino)-propanoyl]amino]-10,13-dioxo-3,17-bis[(2R)-3-amino-2-hydroxy-propoxy]-9,12-diazatricyclo-[13.3.1.12,6]icosa-1(18),2(20),3,5,15(19), 16-hexaene-8-carboxylic acid] | 4.55 | 16 (≈ 15.9 µg/mL) | 16 (≈ 15.9 µg/mL) | 0.5 (≈ 0.497 µg/mL) | 7 (≈ 6.95 µg/mL) | 0.38 (≈ 0.377 µg/mL) |  |  |  |  | 
Cc1nc(-c2ccc(OCCC(C)(C)C)cc2)ncc1C(=O)N[C@@H](CNS(N)(=O)=O)C(=O)N(C)[C@@H]1C(=O)N[C@@H](C)C(=O)N[C@H](C(=O)O)Cc2ccc(OC[C@H](O)CN)c(c2)-c2cc1cc(OC[C@H](O)CN)c2O [Example 16, (8S,11S,14S)-18-hydroxy-11-methyl-14-[methyl-[(2S)-2-[[2-[4-(3,3-dimethyl-butoxy)phenyl]-4-methyl-pyrimidine-5-carbonyl]amino]-3-(sulfamoylamino)-propanoyl]amino]-10,13-dioxo-3,17-bis[(2R)-3-amino-2-hydroxy-propoxy]-9,12-diazatricyclo-[13.3.1.12,6]icosa-1(18),2(20),3,5,15(19), 16-hexaene-8-carboxylic acid] | 4.48 |  |  |  |  |  | 12 (≈ 12.4 µg/mL) | 12 (≈ 12.4 µg/mL) | 0.63 (≈ 0.653 µg/mL) | 6 (≈ 6.22 µg/mL) | 0.44 (≈ 0.456 µg/mL)
Cc1nc(-c2ccc(OCCC(C)(C)C)cc2)nc(N)c1C(=O)N[C@@H](CCN)C(=O)N(C)[C@@H]1C(=O)N[C@@H](C)C(=O)N[C@H](C(=O)O)Cc2ccc(OC[C@H](O)CN)c(c2)-c2cc1cc(OC[C@H](O)CN)c2O [Example 18, (8S,11S,14S)-18-hydroxy-11-methyl-14-[methyl-[(2S)-4-amino-2-[[4-amino-2-[4-(3,3-dimethyl-butoxy)phenyl]-6-methyl-pyrimidine-5-carbonyl]amino]-butanoyl]amino]-10,13-dioxo-3,17-bis[(2R)-3-amino-2-hydroxy-propoxy]-9,12-diazatricyclo-[13.3.1.12,6]icosa-1(18),2(20),3,5,15(19), 16-hexaene-8-carboxylic acid] | 3.92 |  |  |  |  |  | 8 (≈ 7.9 µg/mL) | 8 (≈ 7.9 µg/mL) | 0.25 (≈ 0.247 µg/mL) | 4 (≈ 3.95 µg/mL) | 0.25 (≈ 0.247 µg/mL)
Cc1nc(-c2ccc(C(C)(C)C)cc2)nc(C)c1C(=O)N[C@@H](CCN)C(=O)N(C)[C@@H]1C(=O)N[C@@H](C)C(=O)N[C@H](C(=O)O)Cc2ccc(OC[C@H](O)CN)c(c2)-c2cc1cc(OC[C@H](O)CN)c2O [Example 19, (8S,11S,14S)-18-hydroxy-11-methyl-14-[methyl-[(2S)-4-amino-2-[[2-(4-tert-butylphenyl)-4,6-dimethyl-pyrimidine-5-carbonyl]amino]-butanoyl]amino]-10,13-dioxo-3,17-bis[(2R)-3-amino-2-hydroxy-propoxyl]-9,12-diazatricyclo-[13.3.1.12,6]icosa-1(18),2(20),3,5,15(19), 16-hexaene-8-carboxylic acid] | < 3.60 |  |  |  |  |  | 16 (≈ 15.1 µg/mL) | 16 (≈ 15.1 µg/mL) | 0.25 (≈ 0.236 µg/mL) | 8 (≈ 7.54 µg/mL) | 0.25 (≈ 0.236 µg/mL)
Cc1nc(-c2ccc(OC(C)C)cc2)ncc1C(=O)N[C@@H](CCN)C(=O)N(C)[C@@H]1C(=O)N[C@@H](C)C(=O)N[C@H](C(=O)O)Cc2ccc(OC[C@H](O)CN)c(c2)-c2cc1cc(OC[C@H](O)CN)c2O [Example 20, (8S,11S,14S)-18-hydroxy-11-methyl-14-[methyl-[(2S)-4-amino-2-[[2-(4-isopropoxyphenyl)-4-methyl-pyrimidine-5-carbonyl]amino]-butanoyl]amino]-10,13-dioxo-3,17-bis[(2R)-3-amino-2-hydroxy-propoxy]-9,12-diazatricyclo-[13.3.1.12,6]icosa-1(18),2(20),3,5,15(19), 16-hexaene-8-carboxylic acid] | < 3.60 |  |  |  |  |  | 16 (≈ 14.9 µg/mL) | 16 (≈ 14.9 µg/mL) | 0.46 (≈ 0.428 µg/mL) | 64 (≈ 59.5 µg/mL) | 0.58 (≈ 0.539 µg/mL)
Cc1nc(-c2ccc(C(C)(C)C)cc2)ncc1C(=O)N[C@@H](CCN)C(=O)N(C)[C@@H]1C(=O)N[C@@H](C)C(=O)N[C@H](C(=O)O)Cc2ccc(OC[C@H](O)CN)c(c2)-c2cc1cc(OC[C@H](O)CN)c2O [Example 23, (8S,11S,14S)-18-hydroxy-11-methyl-14-[methyl-[(2S)-4-amino-2-[[2-(4-tert-butylphenyl)-4-methyl-pyrimidine-5-carbonyl]amino]-butanoyl]amino]-10,13-dioxo-3,17-bis[(2R)-3-amino-2-hydroxy-propoxy]-9,12-diazatricyclo-[13.3.1.12,6]icosa-1(18),2(20),3,5,15(19), 16-hexaene-8-carboxylic acid] | 4.66 | 8 (≈ 7.42 µg/mL) | 8 (≈ 7.42 µg/mL) | 0.16 (≈ 0.148 µg/mL) | 16 (≈ 14.8 µg/mL) | 0.22 (≈ 0.204 µg/mL) |  |  |  |  | 
